Here are results for twelve compounds from ChEMBL document CHEMBL3091360, “Homosecoiridoid alkaloids with amino acid units from the flower buds of Lonicera japonica” (J Nat Prod, 2013).

As a reminder, the IC50 is the concentration that gives 50% inhibition. The term inhibition denotes the relative decrease from the control value, in per cent.

In one assay the test system is MCF7. Put plainly: Cytotoxicity against human MCF7 cells at 10 uM after 96 hrs by MTT assay. The assay is classed as functional, cell-based. For orientation: Tetrazolium assays rely on reduction of a dye to a coloured formazan, in cell work by metabolically active cells.
For another assay, the system named is Influenza A virus H3N2. Put plainly: microbe, parasite or virus in culture. The note with it: Hanfang/359/95.
The subject of the next assay is HCT-8. Put plainly: Cytotoxicity against human HCT8 cells at 10 uM after 96 hrs by MTT assay. The class given is functional, cell-based.
Assay [1] concerns Human immunodeficiency virus 1. Put plainly: Antiviral activity against HIV1 infected in human 293T cells expressing VSV-G assessed as inhibition of viral p24 production at 10 uM after 48 hrs by ELISA. The assay is classed as functional, organism-based.
In a further assay the test system is BGC-823. Put plainly: Cytotoxicity against human BGC823 cells at 10 uM after 96 hrs by MTT assay. The assay is classed as functional, cell-based.
The next assay has as its system KETR3. Briefly: Cytotoxicity against human Ketr3 cells at 10 uM after 96 hrs by MTT assay. The class given is functional, cell-based.
A further assay has as its system Bel-7402. Briefly: Cytotoxicity against human Bel7402 cells at 10 uM after 96 hrs by MTT assay. The class given is functional, cell-based.
For the next assay, the system named is A549. Put plainly: Cytotoxicity against human A549 cells at 10 uM after 96 hrs by MTT assay. The class given is functional, cell-based.
Assay [2] can be described thus: Antiinflammatory activity in rat polymorphonuclear leukocytes assessed as inhibition of PAF-induced release of glucuronidase at 10 uM. The assay is classed as functional.
For the next assay, the system named is Coxsackievirus B3. Briefly: Antiviral activity against Coxsackie virus B3 assessed as inhibition of viral replication. The class given is functional, organism-based. The note with it: Enterovirus B.

Active and inactive are the calls of the source. No cut-off for these calls is given here.

Turning to `C=C[C@H]1[C@H](O[C@@H]2O[C@H](CO)[C@@H](O)[C@H](O)[C@H]2O)OC=C(C(=O)[O-])[C@H]1/C=C/c1cc(C(=O)O)c[n+]([C@@H](CC(C)C)C(=O)O)c1`, the result in the assay with MCF7, in the assay on HCT-8, with BGC-823, with KETR3, in the assay on Bel-7402 and with A549 was inactive. Further, 10.3 µM corresponded to half-maximal inhibition in the assay with Influenza A virus H3N2 (IC50). Further, in [1], the inhibition entry was “inactive”. For the same compound, the inhibition at 10 µM in assay [2] is less than 30%.
The compound `CCOC(=O)C1=C[C@@H](OC(CC)CC)[C@H](NC(C)=O)[C@@H](N)C1` [OSELTAMIVIR] registered an IC50 in the assay with Influenza A virus H3N2 of 1.3 µM.
With `O=C(/C=C/c1ccc(O)c(O)c1)O[C@@H]1C[C@](O)(C(=O)O)C[C@@H](OC(=O)/C=C/c2ccc(O)c(O)c2)[C@H]1O`, the result with MCF7, with HCT-8, with BGC-823, in the assay on KETR3, in the assay with Bel-7402 and in the assay on A549 was inactive. Moreover, in the assay with Influenza A virus H3N2, inhibition was half-maximal at 4.9 µM (IC50). Moreover, the inhibition entry in assay [1] was “inactive”. The inhibition at 10 µM in assay [2] is less than 30%.
As to `C=C[C@H]1[C@H](O[C@@H]2O[C@H](CO)[C@@H](O)[C@H](O)[C@H]2O)OC=C(C(=O)O)[C@H]1/C=C/c1cc(C(=O)O)c[n+]([C@H](Cc2ccccc2)C(=O)[O-])c1`, the result in the assay with MCF7, with HCT-8, in the assay on BGC-823, with KETR3, in the assay on Bel-7402 and in the assay on A549 was inactive. The compound also came in with an IC50 in the assay with Influenza A virus H3N2 of 8.2 µM. In addition, the inhibition result in assay [1] was “inactive”. The inhibition at 10 µM in assay [2] is less than 30%.
Turning to `C=C[C@H]1[C@H](O[C@@H]2O[C@H](CO)[C@@H](O)[C@H](O)[C@H]2O)OC=C(C(=O)O)[C@H]1/C=C/c1ccc[n+]([C@H](Cc2ccccc2)C(=O)[O-])c1`, the result with MCF7, in the assay with HCT-8, in the assay with BGC-823, in the assay with KETR3, in the assay with Bel-7402 and in the assay on A549 was inactive. In addition, the IC50 in the assay on Influenza A virus H3N2 worked out at 6.8 µM; in the assay on Coxsackievirus B3 it was 12.3 µM. Besides, in assay [1], the inhibition result was “inactive”. Besides, in assay [2], the inhibition at 10 µM is 53.8%.
As to `C=C[C@H]1[C@H](O[C@@H]2O[C@H](CO)[C@@H](O)[C@H](O)[C@H]2O)OC=C(C(=O)O)[C@H]1/C=C/c1ccc[n+]([C@@H](C)C(=O)[O-])c1`, the result in the assay with MCF7, with HCT-8, with BGC-823, in the assay with KETR3, with Bel-7402 and in the assay with A549 was inactive. The compound also yielded an IC50 with Influenza A virus H3N2 of 11.6 µM. Besides, in [1], the inhibition entry was “inactive”. For the same compound, the inhibition at 10 µM in assay [2] worked out at 63.2%.
`O=C(/C=C/c1ccc(O)c(O)c1)O[C@@H]1[C@H](O)C[C@@](O)(C(=O)O)C[C@H]1OC(=O)/C=C/c1ccc(O)c(O)c1`: the result in the assay with MCF7, with HCT-8, in the assay on BGC-823, with KETR3, in the assay on Bel-7402 and with A549 was inactive. The compound further showed an IC50 in the assay on Influenza A virus H3N2 of 10.2 µM. Also, the inhibition result in assay [1] is “inactive”. In addition, the inhibition at 10 µM in assay [2] was less than 30%.
`Cc1cc(CCCOc2c(C)cc(-c3noc(C(F)(F)F)n3)cc2C)on1` [PLECONARIL]: the IC50 in the assay on Coxsackievirus B3 amounted to 0.3 µM.
Take `COc1cc(/C=C/CO)cc(OC)c1O[C@@H]1O[C@H](CO)[C@@H](O)[C@H](O)[C@H]1O` [SYRINGIN]: the result in the assay on MCF7, in the assay on HCT-8, in the assay on BGC-823, in the assay on KETR3, in the assay on Bel-7402 and in the assay with A549 was inactive. The inhibition result in [1] was “inactive”. Moreover, in [2], the inhibition at 10 µM was less than 30%.
As to `COC[C@H]1O[C@@H](n2cnc3c(N)ncnc32)[C@H](O)[C@@H]1O`, the outcome with MCF7, with HCT-8, with BGC-823, with KETR3, in the assay on Bel-7402 and in the assay with A549 was inactive. Besides, the IC50 in the assay on Influenza A virus H3N2 is 3.4 µM. In addition, the inhibition result in assay [1] was “inactive”. In [2], the inhibition at 10 µM was less than 30%.
For `C=C[C@H]1[C@H](O[C@@H]2O[C@H](CO)[C@@H](O)[C@H](O)[C@H]2O)OC=C(C(=O)OC)[C@H]1/C=C/c1cc(C(=O)O)c[n+]([C@H](C(=O)[O-])C(C)C)c1`, the outcome with MCF7, with HCT-8, with BGC-823, with KETR3, with Bel-7402 and in the assay on A549 was inactive. For the same compound, the inhibition result in [1] was “inactive”. The inhibition at 10 µM in assay [2] was less than 30%.
In the case of `O=C(/C=C/c1ccc(O)c(O)c1)O[C@@H]1C[C@@](O)(C(=O)O)C[C@@H](O)[C@H]1O`, the result in the assay on MCF7, in the assay with HCT-8, with BGC-823, in the assay on KETR3, with Bel-7402 and with A549 was inactive. Moreover, the inhibition entry in [1] is “inactive”. For the same compound, the inhibition at 10 µM in [2] was less than 30%.
